Laboratory results: patent US12435108B2, “Teixobactin analogue and use thereof” (SUNSHINE LAKE PHARMA CO., LTD., priority 2019, dated 2025)

Legend:
[1] = test system: MRSA (SA88); settings: agar plate two-fold dilution, CLSI, 35 °C, 18 h
Experimental: (§1) For the determination of the minimum inhibitory concentration (MIC), according to the CLSI standard, a two-fold dilution method with a plate and a Denlay multi-point inoculator were used to conduct the drug sensitivity test. The test bacteria were enriched with MH broth or brain heart infusion. The drug solution was diluted two-fold with MH broth to prepare various required concentrations, and appropriate amounts were added to the plates respectively. After the MH agar medium was melted, it was quantitatively poured into the plates containing the drug solution and mixed uniformly. The final concentrations of the samples were: 128, 64, 32, 16, 8, 4, 2, 1, 0.5, 0.25, 0.125, 0.063, 0.031, 0.016, 0.008, 0.004 μg/mL, respectively. The test bacteria were inoculated (inoculation amount was 10^4 cfu/point) and then incubated at constant temperature of 35 □. The results were observed after 18 h. The minimum concentration of the drug contained in the sterile growth plate was the minimum inhibitory concentration (MIC). Selection of strain types: MRSA (SA86 and SA88), MSSA (ATCC29213), Enterococcus (ET6) and Streptococcus faecalis (SF).

[2] = test system: MRSA (SA86); settings: agar plate two-fold dilution, CLSI, 35 °C, 18 h
Experimental: as §1

[3] = test system: MSSA (ATCC29213); settings: Test Method 1: agar plate two-fold dilution, CLSI, 35 °C, 18 h
Experimental: as §1

[4] = test system: Enterococcus (ET6); settings: agar plate two-fold dilution, CLSI, 35 °C, 18 h
Experimental: as §1

[5] = test system: Streptococcus faecalis (SF); settings: agar plate two-fold dilution, CLSI, 35 °C, 18 h
Experimental: as §1

[6] = test system: Mycobacterium smegmatis mc2155; assay: MIC, 96-well dilution in 7H9 medium (Test Method 3); assay type: cell-based; settings: 96-well plate, 35±2 °C, 48 hours, highest concentration 64 μg/mL

Compound	In vitro antibacterial activity MIC, MRSA SA88 [1] [µg/mL]	In vitro antibacterial activity MIC, MRSA SA86 [2] [µg/mL]	In vitro antibacterial activity MIC, MSSA(ATCC29213) [3] [µg/mL]	In vitro antibacterial activity MIC, Enterococcus (ET6) [4] [µg/mL]	In vitro antibacterial activity MIC, Streptococcus faecalis(SF) [5] [µg/mL]	In vitro antibacterial activity MIC, Mycobacterium smegmatis mc2155 [6] [µg/mL]
CC[C@H](C)[C@H](NC(=O)[C@@H](Cc1ccccc1)NC)C(=O)N[C@@H](CO)C(=O)N[C@H](CCC(N)=O)C(=O)N[C@@H](C(=O)N[C@H](C(=O)N[C@@H](CO)C(=O)N[C@H]1C(=O)N[C@@H](C)C(=O)NC2(CCCCC2)C(=O)N[C@@H]([C@@H](C)CC)C(=O)O[C@H]1C)[C@@H](C)CC)[C@@H](C)CC.O=C(O)C(F)(F)F [Example 8]	4	8	8			
CC[C@H](C)[C@H](NC(=O)[C@@H](Cc1ccccc1)NC)C(=O)N[C@@H](CO)C(=O)N[C@H](CCC(N)=O)C(=O)N[C@@H](C(=O)N[C@H](C(=O)N[C@@H](CO)C(=O)N[C@H]1C(=O)N[C@@H](C)C(=O)N[C@]2(C[C@@H]2CC(F)F)C(=O)N[C@@H]([C@@H](C)CC)C(=O)N[C@H]1C)[C@@H](C)CC)[C@@H](C)CC.O=C(O)C(F)(F)F [Example 2]	2	4	4	4	8	
CC[C@H](C)[C@H](NC(=O)[C@@H](Cc1ccccc1)NC)C(=O)N[C@@H](CO)C(=O)N[C@H](CCC(N)=O)C(=O)N[C@@H](C(=O)N[C@H](C(=O)N[C@@H](CO)C(=O)N[C@H]1C(=O)N[C@@H](C)C(=O)N[C@@]2(C[C@H]2CC(F)F)C(=O)N[C@@H]([C@@H](C)CC)C(=O)O[C@H]1C)[C@@H](C)CC)[C@@H](C)CC.O=C(O)C(F)(F)F [Example 1]		4	2	4		8
CC[C@H](C)[C@H](NC(=O)[C@H](N)Cc1ccc(-c2ccccc2)cc1)C(=O)N[C@@H](CO)C(=O)N[C@H](CCC(N)=O)C(=O)N[C@@H](C(=O)N[C@H](C(=O)N[C@@H](CO)C(=O)N[C@H]1C(=O)N[C@@H](C)C(=O)N[C@@]2(C[C@H]2CC(F)F)C(=O)N[C@@H]([C@@H](C)CC)C(=O)O[C@H]1C)[C@@H](C)CC)[C@@H](C)CC [Example 13]	8	8	8	8	8	
C=C[C@@H]1C[C@@]12NC(=O)[C@H](C)NC(=O)[C@H](NC(=O)[C@H](CO)NC(=O)[C@@H](NC(=O)[C@H](NC(=O)[C@@H](CCC(N)=O)NC(=O)[C@H](CO)NC(=O)[C@@H](NC(=O)[C@@H](Cc1ccccc1)NC)[C@@H](C)CC)[C@@H](C)CC)[C@@H](C)CC)[C@H](C)NC(=O)[C@H]([C@@H](C)CC)NC2=O.O=C(O)C(F)(F)F [Example 4]	4	8	4	8	8	
CC[C@H](C)[C@H](NC(=O)[C@@H](Cc1ccccc1)NC)C(=O)N[C@@H](CO)C(=O)N[C@H](CCC(N)=O)C(=O)N[C@@H](C(=O)N[C@H](C(=O)N[C@@H](CO)C(=O)N[C@H]1C(=O)N[C@@H](C)C(=O)N[C@@]2(C[C@H]2CCN)C(=O)N[C@@H]([C@@H](C)CC)C(=O)O[C@H]1C)[C@@H](C)CC)[C@@H](C)CC.O=C(O)C(F)(F)F [Example 10]	4	4	2	2	2	
